Assay results published in US5149707A, “1-((2-fluorophenyl)(4-fluorophenyl)phenylmethyl)-1H-imidazole useful as antifungal agent” (J. Uriach & Cia, S.A., priority 1988, dated 1992).
≈ marks a conversion by molar mass, not a printed value.

What was measured:
Type in all cases: cell-based
C. guilliermondii = test: MIC distribution, serial dilutions in Sabouraud gentamycin broth, microplates; conditions: MIC column 40 (first); # of strains = 5
Procedure: The antifungal activity of 1-[(2-fluorophenyl)(4-fluorophenyl)phenylmethyl]-1H-imidazole and bifonazole was determined by serial dilutions in Sabouraud gentamycin broth using microplates. The antifungal agent was diluted in 50% ethanol to obtain concentrations between 40 and 0.015 mcg/ml. Inoculum was 10^7 cfu/ml for yeast and 10^6 cfu/ml for dermatophytes. Incubation was allowed at 37° C. during 2 days for yeasts, and at 29° C. during 7 days for dermatophytes. MIC's were determined as in example 18. The MIC distributions obtained in 9 organisms are shown in the next tables.

C. albicans ATCC 28516 = test: In vitro antifungal activity (MIC), agar dilution; conditions: Candida albicans
Procedure: (§1) The antifungal activity of 1-[(2-fluorophenyl)(4-fluorophenyl)phenylmethyl]-1H-imidazole was shown by its ability to inhibit the growth of different species of yeast and filamentous fungi in vitro. The activity was recorded as the MIC value, that is, the minimum amount of product needed to achieve the complete inhibition of the in vitro growth of the test organism. Testing was performed as follows: a solution of the antifungal agent in ethanol was diluted with DST agar (pH 6.5) or Emmon's Sabouraud dextrose agar to obtain concentrations between 10 and 0.01 mcg/ml, or 80 and 0.16 mcg/m, respectively. The inoculum was standarized in order 1×10^5 cfu/ml, and 10 mcl of each organism was seeded into the agar surface. Incubation was then allowed at 30° C. during 3 days (DST) or 2 days (Emmon's) for yeasts and 10 days for filamentous fungi. Following incubation, the zones of inhibition were measured and compared to an inoculated, drug-free control to yield the MIC value.

C. tropicalis SQ 1647 = test: In vitro antifungal activity (MIC), agar dilution
Procedure: as §1

[1] = system: C. guilliermondii SQ 2210; test: In vitro antifungal activity (MIC), agar dilution; conditions: Meyerozyma guilliermondii
Procedure: as §1

[2] = system: T. mentagrophytes ATCC 9972; test: In vitro antifungal activity (MIC), agar dilution; conditions: Trichophyton mentagrophytes
Procedure: as §1

[3] = system: T. mentagrophytes ATCC 9129; test: In vitro antifungal activity (MIC), agar dilution
Procedure: as §1

S. cerevisiae ATCC 9763 = test: In vitro antifungal activity (MIC), agar dilution; conditions: Saccharomyces cerevisiae
Procedure: as §1

[4] = system: C. pseudotropicalis ATCC 28838; test: In vitro antifungal activity (MIC), agar dilution; conditions: Kluyveromyces marxianus
Procedure: as §1

[5] = system: T. mentagrophytes (clinica) (5); test: In vitro antifungal activity (MIC), agar dilution; conditions: Trichophyton mentagrophytes
Procedure: as §1

[6] = system: Microsporum canis (clinica); test: In vitro antifungal activity (MIC), agar dilution
Procedure: as §1

Microsporum gypseum (-) = test: In vitro antifungal activity (MIC), agar dilution; conditions: Nannizzia gypsea
Procedure: as §1

[7] = system: Aspergillus fumigatus (1); test: In vitro antifungal activity (MIC), agar dilution
Procedure: as §1

Aspergillus flavus = test: In vitro antifungal activity (MIC), agar dilution
Procedure: as §1

[8] = system: T. mentagrophytes (clinica) (3); test: In vitro antifungal activity (MIC), agar dilution; conditions: Trichophyton mentagrophytes
Procedure: as §1

Aspergillus niger = test: In vitro antifungal activity (MIC), agar dilution
Procedure: as §1

C. albicans serotipo B = test: In vitro antifungal activity (MIC), agar dilution; conditions: Candida albicans
Procedure: as §1

C. albicans serotipo A = test: In vitro antifungal activity (MIC), agar dilution
Procedure: as §1

Rhodotorula rubra = test: In vitro antifungal activity (MIC), agar dilution
Procedure: as §1

[9] = system: C. parapsilosis (clinica); test: In vitro antifungal activity (MIC), agar dilution; conditions: Lodderomyces parapsilosis
Procedure: as §1

C. albicans ATCC 10231 = test: In vitro antifungal activity (MIC), agar dilution; conditions: Candida albicans
Procedure: as §1

[10] = system: C. guilliermondii (clinica); test: In vitro antifungal activity (MIC), agar dilution; conditions: Meyerozyma guilliermondii
Procedure: as §1

T. glabrata (clinica) = test: In vitro antifungal activity (MIC), agar dilution; conditions: Nakaseomyces glabratus
Procedure: as §1

[11] = system: T. mentagrophytes (clinica) (1); test: In vitro antifungal activity (MIC), agar dilution; conditions: Trichophyton mentagrophytes
Procedure: as §1

[12] = system: Microsporum audouini ATCC 9079; test: In vitro antifungal activity (MIC), agar dilution
Procedure: as §1

[13] = system: T. mentagrophytes (clinica) (4); test: In vitro antifungal activity (MIC), agar dilution; conditions: Trichophyton mentagrophytes
Procedure: as §1

Microsporum gypseum = test: In vitro antifungal activity (MIC), agar dilution; conditions: Nannizzia gypsea
Procedure: as §1

[14] = system: Aspergillus fumigatus (2); test: In vitro antifungal activity (MIC), agar dilution
Procedure: as §1

[15] = system: T. mentagrophytes (clinica) (2); test: In vitro antifungal activity (MIC), agar dilution; conditions: Trichophyton mentagrophytes
Procedure: as §1

[16] = Emmon's Sabouraud dextrose agar

c1ccc(-c2ccc(C(c3ccccc3)n3ccnc3)cc2)cc1 (stereo not shown) [Bifonazole, 1-[(4-biphenyl)-phenylmethyl]-1H-imidazole, reference compound]
MIC Distribution (number of strains) (C. guilliermondii): 5 # of strains | MIC (C. albicans ATCC 28516; ATCC28516, DST agar): 2.5 µg/mL (≈ 8.05 µM) | MIC (C. albicans ATCC 28516; ATCC28516, Emmon's Sabouraud dextrose agar): 0.63 µg/mL (≈ 2.03 µM) | MIC (C. tropicalis SQ 1647; Candida tropicalis, SQ1647): 10 µg/mL (≈ 32.2 µM) | MIC (C. tropicalis SQ 1647; [16]): 10.00 µg/mL (≈ 32.2 µM) | MIC ([1]; SQ2210, DST agar): 10 µg/mL (≈ 32.2 µM) | MIC ([1]; SQ2210, Emmon's Sabouraud dextrose agar): 5 µg/mL (≈ 16.1 µM) | MIC ([2]; ATCC9972, DST agar): 1 µg/mL (≈ 3.22 µM) | MIC ([2]; ATCC9972, Emmon's Sabouraud dextrose agar): 5 µg/mL (≈ 16.1 µM) | MIC [3, 16]: 2.50 µg/mL (≈ 8.05 µM) | MIC ([3]; Trichophyton mentagrophytes, ATCC9129): 2.5 µg/mL (≈ 8.05 µM) | MIC (S. cerevisiae ATCC 9763; ATCC9763, DST agar): 0.25 µg/mL (≈ 0.805 µM) | MIC (S. cerevisiae ATCC 9763; ATCC9763, Emmon's Sabouraud dextrose agar): 0.63 µg/mL (≈ 2.03 µM) | MIC ([4]; ATCC28838, DST agar): 0.05 µg/mL (≈ 0.161 µM) | MIC ([4]; ATCC28838, Emmon's Sabouraud dextrose agar): 1.25 µg/mL (≈ 4.03 µM) | MIC ([5]; DST agar): 1 µg/mL (≈ 3.22 µM) | MIC [5, 16]: 5 µg/mL (≈ 16.1 µM) | MIC ([6]; DST agar): 0.025 µg/mL (≈ 0.0805 µM) | MIC [6, 16]: 2.5 µg/mL (≈ 8.05 µM) | MIC (Microsporum gypseum (-); DST agar): 2.5 µg/mL (≈ 8.05 µM) | MIC (Microsporum gypseum (-); [16]): 5 µg/mL (≈ 16.1 µM) | MIC ([7]; DST agar): 0.1 µg/mL (≈ 0.322 µM) | MIC [7, 16]: 0.31 µg/mL (≈ 0.999 µM) | MIC (Aspergillus flavus; DST agar): 10 µg/mL (≈ 32.2 µM) | MIC (Aspergillus flavus; [16]): 80 µg/mL (≈ 258 µM) | MIC ([8]; DST agar): 1 µg/mL (≈ 3.22 µM) | MIC [8, 16]: 5 µg/mL (≈ 16.1 µM) | MIC (Aspergillus niger; DST agar): 0.1 µg/mL (≈ 0.322 µM) | MIC (Aspergillus niger; [16]): 2.5 µg/mL (≈ 8.05 µM) | MIC (C. albicans serotipo B; DST agar): 10 µg/mL (≈ 32.2 µM) | MIC (C. albicans serotipo B; [16]): 20 µg/mL (≈ 64.4 µM) | MIC (C. albicans serotipo A; Candida albicans): 2.5 µg/mL (≈ 8.05 µM) | MIC (C. albicans serotipo A; [16]): 2.50 µg/mL (≈ 8.05 µM) | MIC (Rhodotorula rubra; DST agar): 0.05 µg/mL (≈ 0.161 µM) | MIC (Rhodotorula rubra; [16]): 0.04 µg/mL (≈ 0.129 µM) | MIC ([9]; DST agar): 10 µg/mL (≈ 32.2 µM) | MIC [9, 16]: 20 µg/mL (≈ 64.4 µM) | MIC (C. albicans ATCC 10231; ATCC10231, DST agar): 1 µg/mL (≈ 3.22 µM) | MIC (C. albicans ATCC 10231; ATCC10231, Emmon's Sabouraud dextrose agar): 0.63 µg/mL (≈ 2.03 µM) | MIC [10, 16]: 40 µg/mL (≈ 129 µM) | MIC ([10]; DST agar): 10 µg/mL (≈ 32.2 µM) | MIC (T. glabrata (clinica); DST agar): 0.05 µg/mL (≈ 0.161 µM) | MIC (T. glabrata (clinica); [16]): 0.16 µg/mL (≈ 0.515 µM) | MIC ([11]; DST agar): 0.5 µg/mL (≈ 1.61 µM) | MIC [11, 16]: 5 µg/mL (≈ 16.1 µM) | MIC ([12]; ATCC9079, DST agar): 0.05 µg/mL (≈ 0.161 µM) | MIC ([12]; ATCC9079, Emmon's Sabouraud dextrose agar): 5 µg/mL (≈ 16.1 µM) | MIC ([13]; DST agar): 0.5 µg/mL (≈ 1.61 µM) | MIC [13, 16]: 5 µg/mL (≈ 16.1 µM) | MIC (Microsporum gypseum; DST agar): 0.1 µg/mL (≈ 0.322 µM) | MIC (Microsporum gypseum; [16]): 0.63 µg/mL (≈ 2.03 µM) | MIC ([14]; DST agar): 1 µg/mL (≈ 3.22 µM) | MIC [14, 16]: 1.25 µg/mL (≈ 4.03 µM) | MIC ([15]; DST agar): 10 µg/mL (≈ 32.2 µM) | MIC [15, 16]: 80 µg/mL (≈ 258 µM)
